The target in the test is GST-hRIPK1 (8-327) (Homo sapiens (Human), UniProt Q13546). As to the kind of experiment: Fluorescent Polarization Binding (FP Binding) assay, RIPK1. As to conditions: mean of at least two independent experiments. The procedure: Fluorescent Polarization Binding (FP Binding) assay (Berger S. B. et al. (2015) Cell Death Discovery, 1: 15009; Maki J. L. et al. (2012) Anal Biochem., 427(2): 164-174) was performed in polystyrene low volume 384-well black plate, at RT in a final volume of 10.1 μl/well using 10 nM of GST-hRIPK1 (8-327) enzyme and 5 nM of fluorescent-labeled ligand (14-(2-{[3-({2-{[4-(cyanomethyl)phenyl]amino]-6-[(5-cyclopropyl-1H-pyrazol-3-yl)amino]-4-pyrimidinyl}amino) propyl}amino}-2-oxoethyl)-16,16,18,18-tetramethyl-6,7,7a,8a,9,10,16,18-octahydrobenzo [2″,3″]indolizino[8″,7″:5′,6′]pyrano [3′,2′:3,4]pyrido[1,2-a]indo1-5-ium-2-sulfonate.
Test compounds were serially diluted in DMSO at 100 fold final concentrations in the assay (1% DMSO final). In each well of a 384-well Plate were dispensed 0.1 μL of compound solution (or DMSO for controls) followed by 5 μL of GST-hRIPK1 (8-327) at twice the final concentrations in assay buffer (50 mM HEPES pH 7.5, 10 mM NaCl, 50 mM MgCl2, 0.02% CHAPS, 0.5 mM DTT and 0.01% Pluronic F127). For negative control the enzyme addition was replaced by assay buffer only.
After addition of 5 μL of fluorescentlabeled ligand at twice the final concentrations in assay buffer, the plate was incubated at RT for […]. At the end, the binding was measured as FP value with the Envision (PerkinElmer) plate reader using filter for an excitation λ=531 nm FP and an emission λ=595 nm FP (S & P-pol). GST-hRIPK1 (8-327) enzyme was produced via Baculovirus expression.
Test compound inhibition was expressed as percent inhibition of internal assay controls. For concentration response curves, normalized data is fit and IC50 determined using XL-fit (IDBS) for Excel. The IC50 values were averaged to determine a mean value, for a minimum of two independent experiments. Results are shown in Table 2 (RIPK1 IC50) values: +++=0.1 nM<IC50<100 nM; ++=100 nM<IC50<1 μM; +=1 μM<IC50).

Chain of GST-hRIPK1 (8-327) (Q13546 8-327): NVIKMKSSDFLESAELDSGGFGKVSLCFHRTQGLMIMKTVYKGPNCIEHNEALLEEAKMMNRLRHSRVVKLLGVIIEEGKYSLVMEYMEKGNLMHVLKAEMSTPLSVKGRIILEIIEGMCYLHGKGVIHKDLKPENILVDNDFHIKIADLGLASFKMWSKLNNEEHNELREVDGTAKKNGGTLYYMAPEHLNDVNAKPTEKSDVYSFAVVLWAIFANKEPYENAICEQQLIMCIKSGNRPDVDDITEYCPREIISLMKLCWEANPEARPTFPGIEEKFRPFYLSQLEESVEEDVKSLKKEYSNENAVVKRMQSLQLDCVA

For the setting “10 nM GST-hRIPK1 (8-327), 5 nM fluorescent-labeled ligand, RT, 30 min”, `N#Cc1cncc2c1OCCN(C(=O)[C@]13CCN(c4ncc(F)cn4)C[C@H]1C3)C2` (relative stereo) [Example 89, 4-(cis-3-(5-fluoropyrimidin-2-yl)-3-azabicyclo[4.1.0]heptane-6-carbonyl)-3,5-dihydro-2H-pyrido[3,4-f][1,4]oxazepine-9-carbonitrile] had an IC50 of 0.0001 to 0.1 µM.
Take `CC(C(=O)N1CCOc2c(C#N)cncc2C1)(C(F)F)C1CC1` (single isomer, unassigned) [Example 258, 4-(2-Cyclopropyl-3,3-difluoro-2-methyl-propanoyl)-3,5-dihydro-2H-pyrido[3,4-f][1,4]oxazepine-9-carbonitrile]: under “GST-hRIPK1 (8-327)”, the IC50 is 0.0001 to 0.1 µM.
For the setting “GST-hRIPK1 (8-327)”, `CC(C(=O)N1CCOc2c(C#N)cncc2C1)(C(F)F)C1CC1` (single isomer, unassigned) [Example 259, 4-(2-Cyclopropyl-3,3-difluoro-2-methyl-propanoyl)-3,5-dihydro-2H-pyrido[3,4-f][1,4]oxazepine-9-carbonitrile] registered an IC50 of 0.1 to 1 µM.
On the same count and under the same terms, the same measure for `CCC(C)(C(=O)N1CCOc2c(C#N)cncc2C1)C(F)F` (single isomer, unassigned) [Example 260, 4-(2-(Difluoromethyl)-2-methylbutanoyl)-2,3,4,5-tetrahydropyrido[3,4-f][1,4]oxazepine-9-carbonitrile]: 0.0001 to 0.1 µM; for `CCC(C)(C(=O)N1CCOc2c(C#N)cncc2C1)C(F)F` (single isomer, unassigned) [Example 261, 4-(2-(Difluoromethyl)-2-methylbutanoyl)-2,3,4,5-tetrahydropyrido[3,4-f][1,4]oxazepine-9-carbonitrile]: 0.0001 to 0.1 µM.
On the same count and under the same terms, the figure for `CCC(C)(CC#N)C(=O)N1CCOc2c(C#N)cncc2C1` (single isomer, unassigned) [Example 264, 4-[2-(Cyanomethyl)-2-methyl-butanoyl]-3,5-dihydro-2H-pyrido[3,4-f][1,4]oxazepine-9-carbonitrile] is 0.0001 to 0.1 µM; for `CCC(C)(CC#N)C(=O)N1CCOc2c(C#N)cncc2C1` (single isomer, unassigned) [Example 265, 4-[2-(Cyanomethyl)-2-methyl-butanoyl]-3,5-dihydro-2H-pyrido[3,4-f][1,4]oxazepine-9-carbonitrile] it is 0.0001 to 0.1 µM.
As for `CC(F)C(C)(C)C(=O)N1CCOc2c(C#N)cncc2C1` (single isomer, unassigned) [Example 270, 4-(3-fluoro-2,2-dimethyl-butanoyl)-3,5-dihydro-2H-pyrido[3,4-f][1,4]oxazepine-9-carbonitrile], the IC50 (GST-hRIPK1 (8-327)) was in the range of 0.0001 to 0.1 µM.
On the same count and under the same terms, the figure for `CC(F)C(C)(C)C(=O)N1CCOc2c(C#N)cncc2C1` (single isomer, unassigned) [Example 272, 4-(3-Fluoro-2,2-dimethyl-butanoyl)-3,5-dihydro-2H-pyrido[3,4-f][1,4]oxazepine-9-carbonitrile] is 0.0001 to 0.1 µM.
In the case of `CC(F)C(C)(C)C(=O)N1CCOc2c(C#N)cncc2C1` (single isomer, unassigned) [Example 273, 4-(3-Fluoro-2,2-dimethyl-butanoyl)-3,5-dihydro-2H-pyrido[3,4-f][1,4]oxazepine-9-carbonitrile], the IC50 (GST-hRIPK1 (8-327)) was in the range of 0.1 to 1 µM.
The same measure, in the same setting: the same measure for `CC(C)(C(=O)N1CCOc2c(C#N)cncc2C1)C1CCN(c2ncc(F)cn2)C1` (single isomer, unassigned) [Example 280, 4-[2-(-1-(5-Fluoropyrimidin-2-yl)pyrrolidin-3-yl)-2-methyl-propanoyl]-3,5-dihydro-2H-pyrido[3,4-f][1,4]oxazepine-9-carbonitrile]: > 1 µM; for `CC(C)(C(=O)N1CCOc2c(C#N)cncc2C1)C1CCN(c2ncc(F)cn2)C1` (single isomer, unassigned) [Example 281, 4-[2-(-1-(5-Fluoropyrimidin-2-yl)pyrrolidin-3-yl)-2-methyl-propanoyl]-3,5-dihydro-2H-pyrido[3,4-f][1,4]oxazepine-9-carbonitrile]: 0.0001 to 0.1 µM; for `CCC(C)(OC)C(=O)N1CCOc2c(C#N)cncc2C1` (single isomer, unassigned) [Example 282, 4-(2-Methoxy-2-methyl-butanoyl)-3,5-dihydro-2H-pyrido[3,4-f][1,4]oxazepine-9-carbonitrile]: 0.1 to 1 µM.
For the setting “GST-hRIPK1 (8-327)”, `CCC(C)(OC)C(=O)N1CCOc2c(C#N)cncc2C1` (single isomer, unassigned) [Example 283, 4-(-2-Methoxy-2-methyl-butanoyl)-3,5-dihydro-2H-pyrido[3,4-f][1,4]oxazepine-9-carbonitrile] returned an IC50 of 0.1 to 1 µM.
Where the note is “GST-hRIPK1 (8-327)”, `CC1(C(=O)N2CCOc3c(C#N)cncc3C2)CCN(c2ncc(F)cn2)CC1(F)F` (single isomer, unassigned) [Example 284, 4-[3,3-Difluoro-1-(5-fluoropyrimidin-2-yl)-4-methyl-piperidine-4-carbonyl]-3,5-dihydro-2H-pyrido[3,4-f][1,4]oxazepine-9-carbonitrile] yielded an IC50 of 0.0001 to 0.1 µM.
Same read-out and setting: the figure for `CC1(C(=O)N2CCOc3c(C#N)cncc3C2)CCN(c2ncc(F)cn2)CC1(F)F` (single isomer, unassigned) [Example 285, 4-[-3,3-Difluoro-1-(5-fluoropyrimidin-2-yl)-4-methyl-piperidine-4-carbonyl]-3,5-dihydro-2H-pyrido[3,4-f][1,4]oxazepine-9-carbonitrile] is 0.1 to 1 µM; for `N#Cc1cncc2c1OCCN(C(=O)C1(F)CCN(c3ncc(F)cn3)CC1(F)F)C2` (single isomer, unassigned) [Example 295, 4-[3,3,4-Trifluoro-1-(5-fluoropyrimidin-2-yl)piperidine-4-carbonyl]-3,5-dihydro-2H-pyrido[3,4-f][1,4]oxazepine-9-carbonitrile] it is 0.1 to 1 µM.
Take `N#Cc1cncc2c1OCCN(C(=O)C1(F)CCN(c3ncc(F)cn3)CC1(F)F)C2` (single isomer, unassigned) [Example 296, 4-[3,3,4-Trifluoro-1-(5-fluoropyrimidin-2-yl)piperidine-4-carbonyl]-3,5-dihydro-2H-pyrido[3,4-f][1,4]oxazepine-9-carbonitrile]: under “GST-hRIPK1 (8-327)”, the IC50 lay in the range of 0.0001 to 0.1 µM.
On the same count and under the same terms, the same measure for `CC1(C(=O)N2CCOc3c(C#N)cncc3C2)CCN(c2ncccn2)CC1(F)F` (single isomer, unassigned) [Example 297, 4-[3,3-Difluoro-4-methyl-1-pyrimidin-2-yl-piperidine-4-carbonyl]-3,5-dihydro-2H-pyrido[3,4-f][1,4]oxazepine-9-carbonitrile]: 0.0001 to 0.1 µM.
Regarding `CC1(C(=O)N2CCOc3c(C#N)cncc3C2)CCN(c2ncccn2)CC1(F)F` (single isomer, unassigned) [Example 298, 4-[3,3-Difluoro-4-methyl-1-pyrimidin-2-yl-piperidine-4-carbonyl]-3,5-dihydro-2H-pyrido[3,4-f][1,4]oxazepine-9-carbonitrile], under “GST-hRIPK1 (8-327)”, the IC50 is > 1 µM.
The same measure, in the same setting: the same measure for `CC1(C(=O)N2CCOc3c(C#N)cncc3C2)CCN(c2ncc(F)cn2)CC1F` (single isomer, unassigned) [Example 299, 4-[3-Fluoro-1-(5-fluoropyrimidin-2-yl)-4-methyl-piperidine-4-carbonyl]-3,5-dihydro-2H-pyrido[3,4-f][1,4]oxazepine-9-carbonitrile]: 0.0001 to 0.1 µM.
As for `CC1(C(=O)N2CCOc3c(C#N)cncc3C2)CCN(c2ncc(F)cn2)CC1F` (single isomer, unassigned) [Example 300, 4-[3-Fluoro-1-(5-fluoropyrimidin-2-yl)-4-methyl-piperidine-4-carbonyl]-3,5-dihydro-2H-pyrido[3,4-f][1,4]oxazepine-9-carbonitrile], the IC50 (GST-hRIPK1 (8-327)) lay in the range of 0.0001 to 0.1 µM.
With `N#Cc1cncc2c1OCCN(C(=O)C1CCN(c3nccn4ncnc34)CC1F)C2` (single isomer, unassigned) [Example 301, 4-[3-Fluoro-1-([1,2,4]triazolo[1,5-a]pyrazin-8-yl)piperidine-4-carbonyl]-3,5-dihydro-2H-pyrido[3,4-f][1,4]oxazepine-9-carbonitrile], the IC50 (GST-hRIPK1 (8-327)) was 0.1 to 1 µM.
On the same count and under the same terms, the figure for `N#Cc1cncc2c1OCCN(C(=O)C1CCN(c3nccn4ncnc34)CC1F)C2` (single isomer, unassigned) [Example 302, 4-[3-Fluoro-1-([1,2,4]triazolo[1,5-a]pyrazin-8-yl)piperidine-4-carbonyl]-3,5-dihydro-2H-pyrido[3,4-f][1,4]oxazepine-9-carbonitrile] is 0.0001 to 0.1 µM.
In turn, `N#Cc1cncc2c1OCCN(C(=O)C1CCN(c3ccnc4c(F)cnn34)CC1F)C2` (single isomer, unassigned) [Example 303, 4-[3-Fluoro-1-(3-fluoropyrazolo[1,5-a]pyrimidin-7-yl)piperidine-4-carbonyl]-3,5-dihydro-2H-pyrido[3,4-f][1,4]oxazepine-9-carbonitrile] displayed an IC50 (GST-hRIPK1 (8-327)) of 0.1 to 1 µM.

Broadly, the IC50 is the concentration at which inhibition is half-maximal.

These data come from patent US11203600B2 (Denali Therapeutics Inc., priority 2017, dated 2021).
